Counter-ions that a name gives are not always drawn. Values belong to the compound of their own block, whether it stands above or below them.
Key:
[1] = molecular target: T1, LAT1 (Homo sapiens, UniProt Q01650); experiment: Flow cytometry: uptake rate of LAAM TC-CQDs after BCH pre-treatment; format: cell-based; details: across HeLa, A549, PANC-1, MCF-7, MDA-MB-231, MDA-MB-231 SP cells
T1 construct: we treated HeLa cells with an excess of leucine (Leu), phenylalanine (Phe), or glycine (Gly) prior to adding LAAM TC-CQDs; endogenous in cells; host or cells: HeLa (also A549, PANC-1, MCF-7, MDA-MB-231, MDA-MB-231 SP in the flow cytometry)
T1 sequence (Q01650 whole entry): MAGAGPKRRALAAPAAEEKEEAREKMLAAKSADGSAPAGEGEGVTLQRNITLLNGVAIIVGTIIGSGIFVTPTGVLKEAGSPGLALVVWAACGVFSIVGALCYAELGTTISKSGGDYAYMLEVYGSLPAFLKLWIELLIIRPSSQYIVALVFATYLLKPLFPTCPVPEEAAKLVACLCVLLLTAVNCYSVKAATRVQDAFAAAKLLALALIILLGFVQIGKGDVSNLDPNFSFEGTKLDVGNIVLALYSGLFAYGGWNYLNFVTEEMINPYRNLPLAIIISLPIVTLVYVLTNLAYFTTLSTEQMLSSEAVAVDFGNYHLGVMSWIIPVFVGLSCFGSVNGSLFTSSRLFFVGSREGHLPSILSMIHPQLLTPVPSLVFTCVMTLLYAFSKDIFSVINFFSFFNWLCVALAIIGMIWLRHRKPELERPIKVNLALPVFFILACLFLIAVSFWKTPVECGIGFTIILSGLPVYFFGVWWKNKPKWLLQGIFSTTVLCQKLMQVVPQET
T1 sequence (P08195 102-630 partner): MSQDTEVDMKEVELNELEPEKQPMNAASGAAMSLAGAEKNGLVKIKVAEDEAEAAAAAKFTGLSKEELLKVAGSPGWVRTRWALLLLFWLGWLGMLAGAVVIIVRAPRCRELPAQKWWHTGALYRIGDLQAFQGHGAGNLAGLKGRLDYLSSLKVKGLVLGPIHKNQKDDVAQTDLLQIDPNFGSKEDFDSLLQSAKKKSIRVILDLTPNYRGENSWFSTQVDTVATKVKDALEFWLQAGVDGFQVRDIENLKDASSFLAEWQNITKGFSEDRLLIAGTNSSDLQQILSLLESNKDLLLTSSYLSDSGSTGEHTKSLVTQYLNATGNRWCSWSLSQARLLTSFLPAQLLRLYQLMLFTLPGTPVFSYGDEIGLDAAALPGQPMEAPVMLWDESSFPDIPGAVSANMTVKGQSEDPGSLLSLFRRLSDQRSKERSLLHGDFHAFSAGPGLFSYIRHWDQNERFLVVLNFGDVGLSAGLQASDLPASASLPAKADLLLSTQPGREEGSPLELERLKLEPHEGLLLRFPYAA
From the text: (§1) To investigate the mechanism that accounts for the cellular uptake of LAAM TC-CQDs, we treated HeLa cells with an excess of leucine (Leu), phenylalanine (Phe), or glycine (Gly) prior to adding LAAM TC-CQDs. Except Gly, both Leu and Phe are known to be high-affinity substrates to LAT1^27. […] This hypothetical mechanism is supported by several lines of evidence.
Flow cytometry. MDA-MB-231 SP cells were sorted according to our previously reported methods^22. Briefly, cells harvested at about 85% confluence were resuspended in RPMI-1640 supplemented with 2% fetal bovine serum (FBS) at a density of 1×10^6 cells/mL and incubated with Hoechst 33342 at a concentration of 5 μg/mL at 37° C. After 90 min, the cells were suspended in cold PBS at a concentration of 1×10^6 cells/mL, filtered through a 40 μm cell strainer to remove cell aggregates, stained with 1 μg/mL propidium iodide (PI), and analyzed and sorted using a FACSDiva (Becton Dickinson, USA). […] The cells were washed 3 times with cold PBS, resuspended in […] of cold PBS, and analyzed by a FACScan flow cytometer (BD, Ann Arbor, Mich.). […] After 12 h, the cells were washed with fresh medium, trypsinized, resuspended in PBS with 0.5% FBS, and analyzed using a BD FACSCalibur (BD Biosciences, USA). Data were analyzed using FlowJo 7.6.

[2] = molecular target: T1, LAT1; experiment: LCSM: effect of Leu, Phe, Gly or BCH pre-treatment on uptake of LAAM TC-CQDs; format: cell-based; details: HeLa cells, excess of the agent prior to adding LAAM TC-CQDs
Procedure: as §1
Confocal laser scanning microscope imaging. […] After 8 h, cells were washed with PBS twice, fixed with 4% polyformaldehyde for 30 min at room temperature, followed by addition of DAPI for cell nuclei staining. Finally, the slides were washed three times, fixed, sealed with cover glasses, and imaged with excitation/emission: 561/700 using a confocal laser scanning microscopy (Leica TCS-SP8, Germany). To determine the effects of Leu, Phe, Gly or BCH on CQD uptake, HeLa cells were placed and treated with Leu, Phe, Gly or BCH. Four hours later, LAAM TC-CQDs were added to cells. After an additional 8 h, the cells were washed, fixed, and imaged.

[3] = in vivo; details: BALB/c, mouse
Procedure: We repeated the characterization studies using A549 tumours. Experiments were carried out according to the same procedures as described above.

[4] = tested on: HeLa cells; experiment: Cellular toxicity test (CCK-8); format: cell-based, Human; details: concentration equivalent to 5 ug/mL TPTC
Procedure: (§2) Cellular toxicity tests. […] After 12 h, the cultured medium was removed, and washed with PBS. One hundred microliters of fresh medium containing 10 μL CCK-8 (Sigma) was added to each well. After 2 h incubation at 37° C., the absorbance at 450 nm was measured using a microplate reader.

[5] = tested on: CCC-ESF-1 cells; experiment: Cellular toxicity test (CCK-8); format: cell-based, Human; details: concentration equivalent to 5 ug/mL TPTC
Procedure: as §2

[6] = tested on: HeLa tumors; experiment: Therapeutic evaluation in mice bearing HeLa tumors; format: in vivo; details: for tumors fifteen days later: intravenous
Procedure: We assessed TPTC/TC-CQDs for cancer treatment using mice bearing HeLa tumors. […]
Therapeutic evaluation in tumor-bearing mice. HeLa cells were subcutaneously inoculated into female BALB/c mice. When the tumor volumes reached ˜100 mm^3, the mice were intravenously administered with, saline, TPTC or TPTC/TC-CQDs (n=5). Changes in tumor volume and body weight were monitored daily. The volume of the tumor was calculated according to the following formula: V=D×d^2/2 (where D and d are the longest and shortest diameters of tumor, respectively, measured using a vernier caliper). Relative tumor volumes were calculated as V/V0(V0 is the initial tumor volume when the treatment was started).

[7] = in vivo; details: BALB/c, mouse, iv
Procedure: We determined the pharmacokinetics of TPTC/TC-CQDs in mice bearing HeLa tumors. TPTC or TPTC/TC-CQDs were administered intravenously at a dose equivalent to 10 mg/kg TPTC, and the blood was collected at various time points. TPTC in the plasma was quantified by high performance liquid chromatography (HPLC). […] A second cohort of mice received the same treatment was subjected to characterization for biodistribution of TPTC based on TPTC fluorescence.
The same lipid composition was used in several FDA-approved liposomal formulations, including Doxil© 38. […] The blood was collected at various time points. TPTC in the plasma was quantified by high performance liquid chromatography (HPLC).

[8] = Toxicity evaluation in mice; format: in vivo
Procedure: Toxicity evaluation in mice. Female BALB/c mice were intravenously administered with TPTC (10 mg/kg, 0.05 mL per mice) or TPTC/TC-CQDs (10 mg/kg for TPTC, 0.05 mL per mice) (n=5). Mice treated with saline were used as controls. At selected time points, blood samples were collected in heparinized microhematocrit tubes and centrifuged at a speed of 3000 rpm for 10 min. At the end of the study, mice were euthanized. Major organs, including the heart, liver, spleen, kidney and lung were excised, fixed in formalin, and analyzed.

[9] = 10 mg/kg TPTC (or equivalent) at days 1, 4, 8, and 12

- effect of pre-treatment on uptake of LAAM TC-CQDs [2]: significantly inhibited
Compound: CC(C)C[C@H](N)C(=O)O [Leu, leucine]

- effect of pre-treatment on uptake of LAAM TC-CQDs [2]: significantly inhibited
Compound: N[C@@H](Cc1ccccc1)C(=O)O [Phe, phenylalanine]

More lines, now with the values behind:

Compound: NC1(C(=O)O)CC2CCC1C2 (stereo not shown) [BCH, 2-aminobicyclo-(2,2,1)-heptane-2-carboxylic acid]
- cellular uptake rate of LAAM TC-CQDs after pre-treatment with BCH [1]: ~20%
- effect of pre-treatment on uptake of LAAM TC-CQDs [2]: dramatically reduces

Compound: NCC(=O)O [Gly, glycine]
- effect of pre-treatment on uptake of LAAM TC-CQDs [2]: not

Compound: CC[C@@]1(O)C(=O)OCc2c1cc1n(c2=O)Cc2cc3c(CN(C)C)c(O)ccc3nc2-1 [TPTC, topotecan hydrochloride]
- half-life [3]: 5.9 min
- toxicity to HeLa cells [4]: inhibited both cells at a comparable efficiency
- toxicity to non-cancerous CCC-ESF-1 cells [5]: inhibited both cells at a comparable efficiency
- median survival ([6]; 2 mg/kg TPTC (or equivalent)): 30 days
- survival [6, 9]: 40 days
- tumors fifteen days later ([6]; 2 mg/kg TPTC (or equivalent) at days 1, 4, 8, and 12): continuously grew
- tumors fifteen days later [6, 9]: continuously grew
- half-life ([7]; 2 mg/kg): 5.4 min
- half-life ([7]; 10 mg/kg): 5 min
- H&E analysis of major organs [8]: obvious myocardial fiber rupture, diffuse ballooning degeneration of hepatocytes, pulmonary hyperemia, and focal tubular necrosis
- body weight ([8]; throughout the study): weight loss was observed
